Key:
P388 [1] = experiment: Survival of the mice for average number of days; expressed as average survival days; assay type: functional, Mus musculus
[2] = Screening of Ehrlich ascites carcinoma cells in mice at 20 mg/kg/day intraperitoneally.; assay type: functional, Mus musculus; conditions: route intraperitoneal
P388 [3] = experiment: T/C expresses antileukemic activity measured as tested over that of control.; assay type: functional, Mus musculus
Mus musculus [4] = species on record: Mus musculus; experiment: Volume of fluid collected 8 days after tumor transplantation in mice.; assay type: functional; parameters: unit not given beside the values
Mus musculus [5] = species on record: Mus musculus; experiment: Anticarcinoma activity of Diazomethyl Ketone against Ehrlich ascites Carcinoma pharmacological screens were reported; 5/8; assay type: functional
Mus musculus [6] = species on record: Mus musculus; experiment: Percentage inhibition as antitumor activity in carcinoma CF1 male mice.; assay type: functional; parameters: concentration or dose not given beside the values
Mus musculus [7] = species on record: Mus musculus; experiment: Anticarcinoma activity of Diazomethyl Ketone against Ehrlich ascites Carcinoma pharmacological screens were reported; 5/6; assay type: functional
Mus musculus [8] = species on record: Mus musculus; experiment: Anticarcinoma activity of Diazomethyl Ketone against Ehrlich ascites Carcinoma pharmacological screens were reported; 6/6; assay type: functional
P388 [9] = experiment: T/C expresses antileukemic activity measured as tested over that of control; T/C >/= 120 for significant activity; assay type: functional, Mus musculus
Mus musculus [10] = species on record: Mus musculus; experiment: Anticarcinoma activity of Diazomethyl Ketone against Ehrlich ascites Carcinoma pharmacological screens were reported; 12/12; assay type: functional
P388 [11] = experiment: T/C expresses antileukemic activity measured as tested over that of control; assay type: functional, Mus musculus
Mus musculus [12] = species on record: Mus musculus; experiment: Anticarcinoma activity of Diazomethyl Ketone against Ehrlich ascites Carcinoma pharmacological screens were reported; 8/8; assay type: functional
Mus musculus [13] = species on record: Mus musculus; experiment: Anticarcinoma activity of Diazomethyl Ketone against Ehrlich ascites Carcinoma pharmacological screens were reported; 7/8; assay type: functional
Mus musculus [14] = species on record: Mus musculus; experiment: Volume of ascrit fluid collected 8 days after tumor transplantation in mice; assay type: functional
Mus musculus [15] = experiment: Screening of Ehrlich ascites carcinoma cells in mice at 20 mg/kg/day, intraperitoneally; assay type: functional; conditions: route intraperitoneal

| SMILES | Survival (P388 [1]) | ascrit [2] | T/C (P388 [3]) | Volume of ascrit fluid (Mus musculus [4]) | Inhibition (Mus musculus [6]) | Survival after 10 days (Mus musculus [7]) | Survival after 10 days (Mus musculus [8]) | further results |
| --- | --- | --- | --- | --- | --- | --- | --- | --- |
| Cc1ccc(S(=O)(=O)N2CCCC2C(=O)CCl)cc1 (stereo unspecified) | 10.2 days | 30 | 106 | 2.7 | 76.5% |  |  | Survival after 10 days (Mus musculus [5]): 5 |
| Cc1ccc(S(=O)(=O)N[C@H](C)C(=O)CCl)cc1 | 11 days | 18.9 | 114 | 0.25 | 98.6% | 5 |  |  |
| Cc1ccc(S(=O)(=O)NC(C(=O)C=[N+]=[N-])C(C)C)cc1 (stereo unspecified) |  | 52.7 |  | 0.93 | 85.5% |  | 6 |  |
| Cc1ccc(S(=O)(=O)N2CCC[C@H]2C(=O)C=[N+]=[N-])cc1 |  | 39.8 |  | 0.63 | 92.7% |  | 6 |  |
| Cc1ccc(S(=O)(=O)NC(CC(C)C)C(=O)C=[N+]=[N-])cc1 (stereo unspecified) | 12.1 days | 42.5 |  | 0.63 | 92.2% |  | 6 | T/C (P388 [9]): 125 |
| N[C@@H](Cc1ccc(N(CCCl)CCCl)cc1)C(=O)O [MELPHALAN] |  | 0.1 |  | 3 | 99.9% |  | 6 |  |
| O=c1[nH]cc(F)c(=O)[nH]1 [FLUOROURACIL] | 9.66 days | 32.4 |  | 0.98 | 0% |  |  | Survival after 10 days (Mus musculus [10]): 12; T/C (P388 [11]): 100 |
| C=COC(=O)C(Cc1ccc(O)cc1)NS(=O)(=O)c1ccc(C)cc1 (stereo unspecified) |  | 17.5 |  | 4.92 | 75% |  | 6 |  |
| N#CCOC(=O)C(Cc1ccc(O)cc1)NC(=O)OCc1ccccc1 (stereo unspecified) |  | 19.7 |  | 10.82 | 38% |  | 6 |  |
| Cc1ccc(S(=O)(=O)NC(Cc2ccc(O)cc2)C(=O)OCC#N)cc1 (stereo unspecified) |  | 15.8 |  | 9.36 | 56% | 5 |  |  |
| Cc1ccc(S(=O)(=O)NC(CC(C)C)C(=O)CCl)cc1 (stereo unspecified) | 10.3 days | 25.5 | 107 | 2.65 | 80.4% |  |  | Survival after 10 days (Mus musculus [12]): 8 |
| C=COC(=O)C(Cc1ccccc1)NS(=O)(=O)c1ccc(C)cc1 (stereo unspecified) |  | 19.2 |  | 7.74 | 56.8% | 5 |  |  |
| Cc1ccc(S(=O)(=O)NCCCCCC(=O)CCl)cc1 | 11.2 days | 0.01 | 116 | 0.02 | 99.9% | 5 |  |  |
| Cc1ccc(S(=O)(=O)NC(C)C(=O)CCl)cc1 (stereo unspecified) |  | 46.5 |  | 1.6 | 78.4% |  |  | Survival after 10 days (Mus musculus [12]): 8 |
| Cc1ccc(S(=O)(=O)NCC(=O)C=[N+]=[N-])cc1 |  | 56 |  | 0.03 | 99.5% |  | 6 |  |
| Cc1ccc(S(=O)(=O)NCCCCCC(=O)C=[N+]=[N-])cc1 | 11.8 days | 42.5 | 122 | 0.5 | 93.8% | 5 |  |  |
| Cc1ccc(S(=O)(=O)NCCC(=O)C=[N+]=[N-])cc1 | 11.5 days | 44 | 119 | 1.66 | 78.8% |  | 6 |  |
| Cc1ccc(S(=O)(=O)N2C(=O)CCC2C(=O)CCl)cc1 (stereo unspecified) | 12.8 days | 31 |  | 0.95 | 91.4% |  |  | Survival after 10 days (Mus musculus [13]): 7; T/C (P388 [9]): 133 |
| Cc1ccc(S(=O)(=O)N2C(=O)CCC2C(=O)C=[N+]=N)cc1 (stereo unspecified) |  | 32 |  | 0.6 | 94.4% |  | 6 |  |
| CCC(C)C(NS(=O)(=O)c1ccc(C)cc1)C(=O)C=[N+]=[N-] (stereo unspecified) | 12.1 days | 45.4 |  | 1.92 | 74.7% | 5 |  | T/C (P388 [9]): 126 |
| Cc1ccc(S(=O)(=O)NCC(=O)CCl)cc1 | 13.2 days | 0.01 |  | 0.04 | 99.9% | 5 |  | T/C (P388 [9]): 137 |
| CCC(C)C(NS(=O)(=O)c1ccc(C)cc1)C(=O)CCl (stereo unspecified) | 10.5 days | 34.5 | 109 | 1.34 | 86.6% |  |  | Survival after 10 days (Mus musculus [5]): 5 |
| Cc1ccc(S(=O)(=O)NC(C)C(=O)C=[N+]=[N-])cc1 (stereo unspecified) | 11.6 days |  | 120 | 1.02 | 87.1% | 5 |  |  |
| Cc1ccc(S(=O)(=O)NC(C(=O)CCl)C(C)C)cc1 (stereo unspecified) |  | 46.9 |  |  | 91.4% |  | 6 | Volume of ascrit fluid (Mus musculus [14]): 0.63 |
| Cc1ccc(S(=O)(=O)NCCC(=O)CCl)cc1 | 9.8 days | 0.1 | 101 | 0.02 | 99.9% | 5 |  |  |
| Sc1ncnc2nc[nH]c12 [MERCAPTOPURINE ANHYDROUS] |  |  |  | 0.3 | 99.9% |  | 6 | ascrit (Mus musculus [15]): 0.7 |

From ChEMBL document CHEMBL1121402, “Antitumor agents: diazomethyl ketone and chloromethyl ketone analogues prepared from N-tosyl amino acids” (1980)
